US11401278B2, “Macrocyclic indole derivatives” (The Broad Institute, Inc., priority 2017, dated 2022)
Counter-ions that a name gives are not always drawn. Like-named read-outs stand apart in the source and are kept apart here.

Key:
MCL-1 = MCL-1 (Homo sapiens (Human), UniProt Q07820, K194A/K197A/R201A); assay: Protein-protein interaction assay MCL-1/Noxa BH3 peptide (MCL-1 assay, TR-FRET); type: binding; settings: MBP-MCL-1 / Noxa BH3 peptide, median
Procedure: Protein-Protein Interaction Assay: MCL-1/Noxa BH3 Peptide (MCL-1 Assay)
The dose-dependent inhibition by the compounds described in this invention of the interaction between MCL-1 and the BH3 domain of Noxa (both human) was determined using a steady state binding competition assay with time-resolved fluorescence energy transfer (TR-FRET) readout. For that purpose MCL-1 (amino acids 173-329, N-terminal fused to Maltose Binding Protein (MBP) SEQ ID 1) and a synthetic Noxa BH3-derived peptide of sequence Biotin-PEG2-PEG2-PAELEVE-Nva-ATQLRRFGDKLNFRQKLL-amide (SEQ ID 2) served as protein receptor and tracer ligand respectively. The MBP-MCL-1 was purchased from Beryllium (Bedford, Mass., USA). The expression and purification of this protein construct has been described elsewhere (DOI:10.1371/journal.pone.0125010). The Noxa BH3-derived peptide can be obtained from e.g. Biosyntan (Berlin, Germany).
In the assay 11 different concentrations of each compound (0.1 nM, 0.33 nM, 1.1 nM, 3.8 nM, 13 nM, 44 nM, 0.15 μM, 0.51 μM, 1.7 μM, 5.9 μM and 20 μM) were typically measured as duplicates in the same microtiter plate. For that, 100-fold concentrated DMSO solutions were prepared by serial dilutions (1:3.4) of a 2 mM stock solution in a clear, 384-well microtiter plate (Greiner Bio-One, Frickenhausen, Germany). From there, 50 nl were transferred in a dark test plate (Greiner Bio-One, Frickenhausen, Germany). The assay was initiated by addition of 2 μl of a 2.5-fold concentrated MBP-MCL-1 solution (usually for a 1 nM end concentration in 5 μl reaction volume) in aqueous assay buffer [50 mM Tris/HCl pH 7, 100 mM sodium chloride (NaCl), 50 mM potassium fluoride (KF), 0.005% Tween-20, 2 mM DTT, 0.1% bovine gamma globulin (BGG)] to the compounds in the assay plate. This was followed by a 10-minute incubation step at 22° C. for pre-equilibration of the putative complex between MBP-MCL-1 and the compounds. After that, 3 μl of a 1.67-fold concentrated solution (in assay buffer) consisting of Noxa BH3-derived peptide (1 nM end concentration) and TR-FRET detection reagents [1.67 nM anti-MBP-Eu cryptate and 1.67 nM streptavidin-XL665 (both from Cisbio Bioassays, Codolet, France)], were added.
The mixture was incubated in the dark for one hour at 22° C. and then overnight at 4° C. The formation of MCL-1/Noxa complexes was determined by measuring the resonance energy transfer of the anti-MBP-Eu-cryptate antibody to the streptavidin-XL665 present in the reaction. For that purpose, the fluorescence emission at 620 nm and 665 nm after excitation at 330-350 nm was measured in a TR-FRET measuring instrument, for instance a Rubystar or a Pherastar (both from BMG Lab Technologies, Offenburg, Germany) or a Viewlux (Perkin-Elmer). The ratio of the emission at 665 nm and at 622 nm was used as indicator of the amount of MCL-1/NOXA complexes present.
The resulting data (ratio) were normalized, taking 0% inhibition as the mean value of control measurements (usually 32 data points) where all reagents were included. In this case 50 nl DMSO were used instead of compounds. A 100% inhibition corresponded to the mean value of control measurements (usually 32 data points) where all reagents except MCL-1 were included. IC50 values were determined by regression analysis based on a 4 parameter equation (minimum, maximum, IC50, Hill; Y=Max+(Min−Max)/(1+(X/IC50)^HiII) using the Screener Software (Genedata).

SUDHL5 [1] = assay: Induction of caspase-3/7 activity (Assay 4), SUDHL5; type: cell-based; settings: caspase-3/7 induction, median
Procedure: (§1) Cellular Assays Assay 4 Induction of Caspase-3/7 Activity Upon Treatment of Cells with Selected Compounds
(§2) The BH3-domain of MCL-1 sequesters pro-apoptotic proteins, thereby inhibiting apoptosis. In contrast, MCL-1 inhibitors are expected to antagonize this effect leading to an increase in apoptosis, which can be determined by measuring the activity of caspase-3/7.
(§3) The activity of caspase-3/7 was determined in DLBCL (Diffuse large B-cell lymphoma) cell lines (SUDHL5 and SUDHL10) upon treatment with different compounds, using the Caspase-Glo® 3/7 reagent from Promega (G8092).
(§4) Rim wells were excluded. The cells were incubated for 3 hours in a humidified incubator at 37° C.
(§5) For the evaluation of the results, the background measured with “medium-only” was subtracted from all other values. […] The Bella DRC Master Sheet was used to calculate EC50s, with fixed C0=1 and CI=plateau/max induction for the reference compound.

SUDHL10 [2] = assay: Induction of caspase-3/7 activity (Assay 4), SUDHL10; type: cell-based; settings: caspase-3/7 induction, median
Procedure: as §1, §2, §3, §4, §5

SUDHL5 [3] = assay: Antiproliferation assay (Assay 7), SUDHL5; type: cell-based; settings: CellTiter-Glo, median, read-out: Antiproli SUDHL5 [M] (median) IC50
Procedure: (§6) Assessment of the Anti-Proliferative Effect of Compounds in Different Cell Lines
(§7) The impact of compounds on the proliferation of different cell lines was assessed using the CellTiter-Glo® Luminescent Cell Viability reagent from Promega (G7573).
(§8) In parallel, cells were plated in a reference (day 0) plate for time zero determination.
(§9) Rim wells were excluded. The cells were incubated for 72 hours in a humidified incubator at 37° C. The day 0 plate was measured by adding 30 μL/well of CTG solution (CellTiter-Glo® Luminescent Cell Viability reagent, Promega G7573) to time zero wells in the reference plate followed by a 10 minutes incubation and luminescence reading at 0.1 ms. using the PHERAstar FS microplate reader (BMG Labtech).
(§10) After 72 hours incubation, the treated plates were measured in the same way as the day 0 plate mentioned above.

MV-4-11 = assay: Antiproliferation assay (Assay 7), MV-4-11; type: cell-based; settings: Homo sapiens, MV4-11, 72 h, CellTiter-Glo, several values per example, read-out: Antiproli MV-4-11 [M] IC50
Procedure: as §6, §7, §8, §9, §10

AMO-1 = assay: Antiproliferation assay (Assay 7), AMO-1; type: cell-based; settings: CellTiter-Glo, several values per example, read-out: Antiproli AMO-1 [M] IC50
Procedure: as §6, §7, §8, §9, §10

SUDHL5 [4] = assay: Induction of cytotoxicity (Assay 6), SUDHL5; settings: read-out: Cytotox SUDHL5 [M] (median) IC50, CellTiter-Glo, 5 hours, SUDHL5
Procedure: Assay 6 Induction of Cytotoxicity Upon Treatment of Cells with Selected Compounds
Therefore, cytotoxicity assays were run in parallel in SUDHL5 and SUDHL10 cells.
The different cell lines were plated in culture medium (RPMI 1640 [GIBCO #22400-089] supplemented with 10% Fetal Bovine Serum) at a density of 3,300 cells in 30 μl/well in a sterile, solid black, flat bottom, polystyrene, TC-treated 384-well microplate (Corning #3571) using Multidrop Combi Reagent Dispenser. As a control, medium without cells was also added to the plate. Cells were incubated in a humidified incubator at 37° C. overnight. On the next day, the cells were treated with compounds (stock solution, 10 mM in DMSO) using the HP D300 Digital Dispenser in a concentration range of 3.3×10e-5 M (33 μM) to 5×10e-9 M (5 nM) in a single-dot curve with at least 16 dilutions and a DMSO concentration of 0.33%. Rim wells were excluded. The cells were incubated for 5 hours in a humidified incubator at 37° C. After this incubation, 30 μl of CellTiter-Glo® Luminescent Cell Viability reagent (Promega, G7573) was added to each well using the Multidrop Combi Reagent Dispenser, followed by 15 minutes incubation on a shaker at room temperature. Finally, luminescence was read at 0.1 ms, with a gain of 3000 using the PHERAstar FS microplate reader (BMG Labtech).

SUDHL10 [5] = assay: Induction of cytotoxicity (Assay 6), SUDHL10; settings: read-out: Cytotox SUDHL10 [M] (median) IC50, CellTiter-Glo, 5 hours, SUDHL10
HMC-1-8 = assay: Antiproliferation assay (Assay 7), HMC-1-8; type: cell-based; settings: CellTiter-Glo, 72 hours, several values per example, read-out: Antiproli HMC-1-8 [M] IC50
Procedure: as §6, §7, §8, §9, §10

Sequence of MCL-1 (Q07820 whole entry K194A/K197A/R201A, looked up): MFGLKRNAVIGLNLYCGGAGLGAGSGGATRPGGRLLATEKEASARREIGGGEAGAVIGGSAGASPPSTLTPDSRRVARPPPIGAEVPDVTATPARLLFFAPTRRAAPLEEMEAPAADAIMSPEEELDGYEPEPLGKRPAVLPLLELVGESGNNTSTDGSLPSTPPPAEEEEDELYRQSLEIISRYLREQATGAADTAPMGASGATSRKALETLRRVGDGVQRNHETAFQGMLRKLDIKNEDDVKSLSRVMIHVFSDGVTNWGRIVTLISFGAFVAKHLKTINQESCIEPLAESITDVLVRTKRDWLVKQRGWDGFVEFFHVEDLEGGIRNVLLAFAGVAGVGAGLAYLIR

Structure (SMILES)	IC50 (MCL-1) [nM]	EC50 (SUDHL5 [1]; Homo sapiens, SU-DHL-5, 3 h) [nM]	EC50 (SUDHL10 [2]; Homo sapiens, SU-DHL10, 3 h) [nM]	IC50 (SUDHL5 [3]; Homo sapiens, SU-DHL-5, 72 h) [M]	IC50 (MV-4-11) [M]	EC50 (SUDHL5 [1]; 3 hours) [nM]	EC50 (SUDHL10 [2]; 3 hours) [nM]	IC50 (SUDHL5 [3]; 72 hours) [M]	IC50 (AMO-1; Homo sapiens, AMO1, 72 h) [M]	IC50 (SUDHL5 [4]; Homo sapiens, SU-DHL-5, 5 h) [M]	IC50 (SUDHL10 [5]; Homo sapiens, SU-DHL10, 5 h) [M]	IC50 (SUDHL5 [4]) [M]	IC50 (SUDHL10 [5]) [M]	IC50 (AMO-1; 72 hours) [M]	IC50 (HMC-1-8) [M]
Cc1c2c(nn1C)CN(C)S(=O)(=O)CCCn1c(C(=O)O)c(CCCOc3cccc4ccccc34)c3cccc-2c31 (single isomer, unassigned; enantiomer 1) [Example 11, (+)-2,3,14-Trimethyl-7-[3-(1-naphthyloxy)propyl]-11,12,14,15-tetrahydro-2H,10H-pyrazolo[3′,4′:4,5][1,2,8]thiadiazacycloundecino[6,7,8-hi]indole-8-carboxylic acid 13,13-dioxide-N-ethylethanamine Salt (Enantiomer 1)]												1.6e-06	3.7e-06		
CCc1c2c(nn1C)C(N1CCOCC1)CCN(C)S(=O)(=O)CCCn1c(C(=O)O)c(CCCOc3cccc4cc(F)ccc34)c3ccc(Cl)c-2c31 (single isomer, unassigned; enantiomer 1) [Example 70, (+)-4-chloro-3-ethyl-7-{3-[(6-fluoro-1-naphthyl)oxy]propyl}-2,14-dimethyl-17-(morpholin-4-yl)-11,12,14,15,16,17-hexahydro-2H,10H-pyrazolo[3′,4′:6,7][1,2,10]thiadiazacyclotridecino[8,9,10-hi]indole-8-carboxylic acid 13,13-dioxide trifluoroacetate salt (Enantiomer 1)]	86					2600	4400	4e-06				2.6e-06	4.7e-06	7.3e-06	1.5e-05
Cc1c2c(nn1C)CN(C)S(=O)(=O)CCCn1c(C(=O)O)c(CCCOc3cccc4ccccc34)c3cccc-2c31 (single isomer, unassigned; enantiomer 2) [Example 12, (−)-2,3,14-Trimethyl-7-[3-(1-naphthyloxy)propyl]-11,12,14,15-tetrahydro-2H,10H-pyrazolo[3′,4′:4,5][1,2,8]thiadiazacycloundecino[6,7,8-hi]indole-8-carboxylic acid 13,13-dioxide-N-ethylethanamine Salt (Enantiomer 2)]												2.7e-05	2.7e-05		
CCc1c2c(nn1C)CN(CC)S(=O)(=O)CCCn1c(C(=O)O)c(CCCOc3cccc4cc(F)ccc34)c3ccc(Cl)c-2c31 (single isomer, unassigned; enantiomer 2) [Example 58, (−)-4-chloro-3,14-diethyl-7-{3-[(6-fluoronaphthalen-1-yl)oxy]propyl}-2-methyl-13,13-dioxo-10,11,12,13,14,15-hexahydro-2H-13lambda^6-pyrazolo[3′,4′:4,5][1,2,8]thiadiazacycloundecino[6,7,8-hi]indole-8-carboxylic acid N-ethylethanamine Salt (Enantiomer 2)]	28					15000	32000	1.5e-05				1.2e-05		> 3.3e-05	1.5e-05

Now from value to compound, other results behind:

IC50 (MCL-1) [nM]	EC50 (SUDHL5 [1]; Homo sapiens, SU-DHL-5, 3 h) [nM]	EC50 (SUDHL10 [2]; Homo sapiens, SU-DHL10, 3 h) [nM]	IC50 (SUDHL5 [3]; Homo sapiens, SU-DHL-5, 72 h) [M]	IC50 (MV-4-11) [M]	EC50 (SUDHL5 [1]; 3 hours) [nM]	EC50 (SUDHL10 [2]; 3 hours) [nM]	IC50 (SUDHL5 [3]; 72 hours) [M]	Structure (SMILES)	IC50 (AMO-1; Homo sapiens, AMO1, 72 h) [M]	IC50 (SUDHL5 [4]; Homo sapiens, SU-DHL-5, 5 h) [M]	IC50 (SUDHL10 [5]; Homo sapiens, SU-DHL10, 5 h) [M]	IC50 (SUDHL5 [4]) [M]	IC50 (SUDHL10 [5]) [M]	IC50 (AMO-1; 72 hours) [M]	IC50 (HMC-1-8) [M]
1.8	420	610	3.1e-07	8.39e-07				CCc1c2c(nn1C)CN(C)S(=O)(=O)CCCn1c(C(=O)O)c(CCCOc3cccc4cc(F)ccc34)c3ccc(Cl)c-2c31 (racemic) [Example 19, (rac)-13-Chloro-12-ethyl-1-(3-((6-fluoronaphthalen-1-yl)oxy)propyl)-8,11-dimethyl-5,6,9,11-tetrahydro-4H,8H-pyrazolo[3′,4′:4,5][1]thia[2,8]diazacycloundecino[6,7,8-hi]indole-2-carboxylic acid 7,7-dioxide]	1.5e-06	4.6e-07	8.5e-07				
1.5	250	650						CCc1c2c(nn1C)C(N1CCOCC1)CCN(C)S(=O)(=O)CCCn1c(C(=O)O)c(CCCOc3cccc4cc(F)ccc34)c3ccc(Cl)c-2c31 (racemic) [Example 69, (rac)-15-chloro-14-ethyl-1-(3-((6-fluoronaphthalen-1-yl)oxy)propyl)-8,13-dimethyl-11-(rac)-morpholino-5,6,9,10,11,13-hexahydro-4H,8H-pyrazolo[3′,4′:6,7][1]thia[2,10]diazacyclotridecino[8,9,10-hi]indole-2-carboxylic acid 7,7-dioxide (Mixture of Stereoisomers)]		3.1e-07	1.3e-06				
0.8					71	140	1.3e-07	CCc1c2c(nn1C)C(N1CCOCC1)CCN(C)S(=O)(=O)CCCn1c(C(=O)O)c(CCCOc3cccc4cc(F)ccc34)c3ccc(Cl)c-2c31 (single isomer, unassigned; enantiomer 2) [Example 71, (−)-4-chloro-3-ethyl-7-{3-[(6-fluoro-1-naphthyl)oxy]propyl}-2,14-dimethyl-17-(morpholin-4-yl)-11,12,14,15,16,17-hexahydro-2H,10H-pyrazolo[3′,4′:6,7][1,2,10]thiadiazacyclotridecino[8,9,10-hi]indole-8-carboxylic acid 13,13-dioxide trifluoroacetate salt (Enantiomer 2)]				1e-07	1.5e-07		3.2e-06
